The supplement of paper PMC11208160
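Note: IS621 recombinase and bridge RNA in Escherichia coli cells.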

Assay: recombinant barcode read abundance after kanamycin selection (control-corrected) (log10(CPM+1)); higher = more efficient recombination; sequences stand for … in AGTGCAGAGAAAATCGGCCAGTTTTCTCTGCCTGCAGTCCGCATGCCGT…AGATTTATGCAGCGGACTGCCTTTCTCCCAAAGTGATAAACCGGACAGTATCATGGACCGGTTTTCCCGGTAATCCGTATTTGCAAGGTTGGTTTCACT; site = the 11-nt target
How it was run: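 Recombination efficiency draws on barcodes counted at recombinant junctions in a pooled E. coli screen of targets paired with IS621 bridge RNA target-binding loops. The counts were converted to counts per million, averaged and corrected against the chloramphenicol/ampicillin LB agar control, then reported as log10(CPM+1). Selection plates held chloramphenicol/ampicillin/kanamycin with 0.1 mM IPTG, with two replicates per condition.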
With “CGTTCTACTTGGGTTCTAACCTGTTGCCT (site CGTTCGACTAG)” the “recombinant barcode read abundance (log10)” value was 0.0414.
In the case of “CGTTCTACTTGGGTTCTAACCTGTTGCCT (site CGTTCTACTAG)”, the “recombinant barcode read abundance (log10)” value was 0.00743.
For “CGTTGATCTTGGGTTCTAACCTGTTGCCT (site CGTTGATCTAG)”, the “recombinant barcode read abundance (log10)” value was 0.234.
For “CGTTGATCTTGGGTTCTAACCTGTTGCCT (site CGTTGTTCTAG)”, the “recombinant barcode read abundance (log10)” value was 0.0674.
For “CGTTGTCCTTGGGTTCTAACCTGTTGCAA (site CCTTGTCCTCT)”, the “recombinant barcode read abundance (log10)” value was 0.00991.
With “CGTTGTCCTTGGGTTCTAACCTGTTGCAA (site CGTTGTCCTTT)” the “recombinant barcode read abundance (log10)” value was 0.347.
In the case of “CGTTGTTCTTGGGTTCTAACCTGTTGCCT (site CGTTGATCTAG)”, the “recombinant barcode read abundance (log10)” value was 0.0873.
In the case of “CGTTGTTCTTGGGTTCTAACCTGTTGCCT (site CGTTGTTCTAG)”, the “recombinant barcode read abundance (log10)” value was 0.163.
In the case of “CTAAAAGCTTGGGTTCTAACCTGTTGCCA (site CTAAAAGCTTG)”, the “recombinant barcode read abundance (log10)” value was 0.493.
In the case of “CTAAAAGCTTGGGTTCTAACCTGTTGCCA (site TACTCCTCTCC)”, the “recombinant barcode read abundance (log10)” value was 0.0219.
For “CTAAAGTCTTGGGTTCTAACCTGTTGCAC (site CTAAAGTCTGG)”, the “recombinant barcode read abundance (log10)” value was 0.0578.
In the case of “CTAAAGTCTTGGGTTCTAACCTGTTGCAC (site CTAAAGTCTGT)”, the “recombinant barcode read abundance (log10)” value was 1.51.
For “CTAAAGTCTTGGGTTCTAACCTGTTGCCC (site CTAAAGTCTGG)”, the “recombinant barcode read abundance (log10)” value was 0.4.
With “CTAAAGTCTTGGGTTCTAACCTGTTGCCC (site CTAAAGTCTGT)” the “recombinant barcode read abundance (log10)” value was 0.136.
With “CTAAATACTTGGGTTCTAACCTGTTGCTT (site CTAAATACTAA)” the “recombinant barcode read abundance (log10)” value was 0.383.
With “CTAAATACTTGGGTTCTAACCTGTTGCTT (site CTATATACTAA)” the “recombinant barcode read abundance (log10)” value was 0.107.
In the case of “CTAACCTCTTGGGTTCTAACCTGTTGCAT (site CTAACCTCTAT)”, the “recombinant barcode read abundance (log10)” value was 2.1.
For “CTAACCTCTTGGGTTCTAACCTGTTGCAT (site CTACCCTCTAT)”, the “recombinant barcode read abundance (log10)” value was 0.0596.
For “CTAACCTCTTGGGTTCTAACCTGTTGCAT (site CTAGCCTCTAT)”, the “recombinant barcode read abundance (log10)” value was 0.151.
In the case of “CTAACCTCTTGGGTTCTAACCTGTTGCAT (site CTATCCTCTAT)”, the “recombinant barcode read abundance (log10)” value was 0.0287.
With “CTAACTACTTGGGTTCTAACCTGTTGCTT (site AGTTGGCCTCT)” the “recombinant barcode read abundance (log10)” value was 0.41.
For “CTAACTACTTGGGTTCTAACCTGTTGCTT (site CTAACTACTAA)”, the “recombinant barcode read abundance (log10)” value was 0.252.
With “CTAACTCCTTGGGTTCTAACCTGTTGCCT (site ATACCTCCTAG)” the “recombinant barcode read abundance (log10)” value was 0.242.
For “CTAACTCCTTGGGTTCTAACCTGTTGCCT (site CTAACTCCTAG)”, the “recombinant barcode read abundance (log10)” value was 0.401.
For “CTAACTCCTTGGGTTCTAACCTGTTGCTG (site CTAACTCCTCA)”, the “recombinant barcode read abundance (log10)” value was 0.12.
For “CTAACTCCTTGGGTTCTAACCTGTTGCTG (site CTAACTGCTCC)”, the “recombinant barcode read abundance (log10)” value was 0.524.
For “CTAACTGCTTGGGTTCTAACCTGTTGCGG (site CTAACTCCTCA)”, the “recombinant barcode read abundance (log10)” value was 0.0417.
In the case of “CTAACTGCTTGGGTTCTAACCTGTTGCGG (site CTAACTGCTCC)”, the “recombinant barcode read abundance (log10)” value was 0.633.
In the case of “CTAACTGCTTGGGTTCTAACCTGTTGCGT (site CTAACTGCTAC)”, the “recombinant barcode read abundance (log10)” value was 0.96.
With “CTAACTGCTTGGGTTCTAACCTGTTGCGT (site TCCCAAACTGT)” the “recombinant barcode read abundance (log10)” value was 0.177.
For “CTAAGAACTTGGGTTCTAACCTGTTGCCT (site CTAAGAACTAA)”, the “recombinant barcode read abundance (log10)” value was 0.0228.
With “CTAAGAACTTGGGTTCTAACCTGTTGCCT (site CTAAGAACTAC)” the “recombinant barcode read abundance (log10)” value was 1.05.
In the case of “CTAAGAACTTGGGTTCTAACCTGTTGCCT (site CTAAGAACTAG)”, the “recombinant barcode read abundance (log10)” value was 0.604.
For “CTAAGAACTTGGGTTCTAACCTGTTGCCT (site CTAAGAACTAT)”, the “recombinant barcode read abundance (log10)” value was 0.
With “CTAAGATCTTGGGTTCTAACCTGTTGCCT (site CAAAGATCTAG)” the “recombinant barcode read abundance (log10)” value was 0.0172.
In the case of “CTAAGATCTTGGGTTCTAACCTGTTGCCT (site CCAAGATCTAG)”, the “recombinant barcode read abundance (log10)” value was 0.119.
With “CTAAGATCTTGGGTTCTAACCTGTTGCCT (site CGAAGATCTAG)” the “recombinant barcode read abundance (log10)” value was 0.0614.
With “CTAAGATCTTGGGTTCTAACCTGTTGCCT (site CTAAGATCTAG)” the “recombinant barcode read abundance (log10)” value was 0.169.
In the case of “CTAAGCTCTTGGGTTCTAACCTGTTGCTA (site CTAAGCTCTAA)”, the “recombinant barcode read abundance (log10)” value was 0.0436.
In the case of “CTAAGCTCTTGGGTTCTAACCTGTTGCTA (site CTAAGCTCTCA)”, the “recombinant barcode read abundance (log10)” value was 0.0617.
For “CTAAGCTCTTGGGTTCTAACCTGTTGCTA (site CTAAGCTCTGA)”, the “recombinant barcode read abundance (log10)” value was 0.172.
In the case of “CTAAGCTCTTGGGTTCTAACCTGTTGCTA (site CTAAGCTCTTA)”, the “recombinant barcode read abundance (log10)” value was 0.939.
For “CTAAGGACTTGGGTTCTAACCTGTTGCTA (site CGAAGGACTTA)”, the “recombinant barcode read abundance (log10)” value was 0.0114.
For “CTAAGGACTTGGGTTCTAACCTGTTGCTA (site CTAAGGACTTA)”, the “recombinant barcode read abundance (log10)” value was 1.11.
For “CTAAGGCCTTGGGTTCTAACCTGTTGCAT (site AAGTCCTCTCA)”, the “recombinant barcode read abundance (log10)” value was 0.428.
For “CTAAGGCCTTGGGTTCTAACCTGTTGCAT (site CTAAGGCCTAT)”, the “recombinant barcode read abundance (log10)” value was 1.85.
For “CTAAGGGCTTGGGTTCTAACCTGTTGCTG (site CTAAGGACTAA)”, the “recombinant barcode read abundance (log10)” value was 0.314.
With “CTAAGGGCTTGGGTTCTAACCTGTTGCTG (site CTAAGGGCTCA)” the “recombinant barcode read abundance (log10)” value was 0.772.
In the case of “CTAAGGTCTTGGGTTCTAACCTGTTGCGT (site CTAAGGTCTAA)”, the “recombinant barcode read abundance (log10)” value was 0.31.
With “CTAAGGTCTTGGGTTCTAACCTGTTGCGT (site CTAAGGTCTAC)” the “recombinant barcode read abundance (log10)” value was 2.69.
In the case of “CTAAGGTCTTGGGTTCTAACCTGTTGCGT (site CTAAGGTCTAG)”, the “recombinant barcode read abundance (log10)” value was 0.209.
In the case of “CTAAGGTCTTGGGTTCTAACCTGTTGCGT (site CTAAGGTCTAT)”, the “recombinant barcode read abundance (log10)” value was 1.9.
With “CTAAGGTCTTGGGTTCTAACCTGTTGCTT (site CTAAGGTCTAA)” the “recombinant barcode read abundance (log10)” value was 0.462.
For “CTAAGGTCTTGGGTTCTAACCTGTTGCTT (site CTAAGGTCTAC)”, the “recombinant barcode read abundance (log10)” value was 0.132.
With “CTAAGGTCTTGGGTTCTAACCTGTTGCTT (site CTAAGGTCTAG)” the “recombinant barcode read abundance (log10)” value was 0.186.
With “CTAAGGTCTTGGGTTCTAACCTGTTGCTT (site CTAAGGTCTAT)” the “recombinant barcode read abundance (log10)” value was 0.886.
In the case of “CTAAGTACTTGGGTTCTAACCTGTTGCAG (site CTAAGTACTCT)”, the “recombinant barcode read abundance (log10)” value was 1.56.
For “CTAAGTACTTGGGTTCTAACCTGTTGCAG (site CTAATTACTTT)”, the “recombinant barcode read abundance (log10)” value was 0.56.
For “CTAATATCTTGGGTTCTAACCTGTTGCAT (site AATGGTCCTTG)”, the “recombinant barcode read abundance (log10)” value was 0.105.
In the case of “CTAATATCTTGGGTTCTAACCTGTTGCAT (site CTAATATCTAT)”, the “recombinant barcode read abundance (log10)” value was 1.26.
For “CTAATCCCTTGGGTTCTAACCTGTTGCAT (site CATATCCCTAT)”, the “recombinant barcode read abundance (log10)” value was 0.0276.
In the case of “CTAATCCCTTGGGTTCTAACCTGTTGCAT (site CTAATCCCTAT)”, the “recombinant barcode read abundance (log10)” value was 1.59.
In the case of “CTAATGGCTTGGGTTCTAACCTGTTGCCT (site CTAATAGCTAG)”, the “recombinant barcode read abundance (log10)” value was 0.176.
With “CTAATGGCTTGGGTTCTAACCTGTTGCCT (site CTAATGGCTAG)” the “recombinant barcode read abundance (log10)” value was 0.178.
For “CTACAACCTTGGGTTCTAACCTGTTGCAG (site CTACAACCTCT)”, the “recombinant barcode read abundance (log10)” value was 2.02.
For “CTACAACCTTGGGTTCTAACCTGTTGCAG (site TGGACTACTGA)”, the “recombinant barcode read abundance (log10)” value was 0.25.
With “CTACACACTTGGGTTCTAACCTGTTGCTA (site CTACACACTGA)” the “recombinant barcode read abundance (log10)” value was 0.00924.
In the case of “CTACACACTTGGGTTCTAACCTGTTGCTA (site CTACACACTTA)”, the “recombinant barcode read abundance (log10)” value was 1.91.
For “CTACACCCTTGGGTTCTAACCTGTTGCGA (site CTAAACCCTAC)”, the “recombinant barcode read abundance (log10)” value was 0.0483.
With “CTACACCCTTGGGTTCTAACCTGTTGCGA (site CTACACCCTTC)” the “recombinant barcode read abundance (log10)” value was 2.39.
With “CTACATCCTTGGGTTCTAACCTGTTGCTT (site CTACAACCTAA)” the “recombinant barcode read abundance (log10)” value was 0.00817.
With “CTACATCCTTGGGTTCTAACCTGTTGCTT (site CTACACCCTAA)” the “recombinant barcode read abundance (log10)” value was 0.157.
With “CTACATCCTTGGGTTCTAACCTGTTGCTT (site CTACAGCCTAA)” the “recombinant barcode read abundance (log10)” value was 0.0896.
For “CTACATCCTTGGGTTCTAACCTGTTGCTT (site CTACATCCTAA)”, the “recombinant barcode read abundance (log10)” value was 1.49.
In the case of “CTACCTACTTGGGTTCTAACCTGTTGCGG (site AATATCTCTTG)”, the “recombinant barcode read abundance (log10)” value was 0.224.
With “CTACCTACTTGGGTTCTAACCTGTTGCGG (site CTACCTACTCC)” the “recombinant barcode read abundance (log10)” value was 2.72.
For “CTACGAACTTGGGTTCTAACCTGTTGCGG (site CTACGAACTCC)”, the “recombinant barcode read abundance (log10)” value was 2.17.
